Experimental data: US9492450B2, “Inhibition of dynamin related protein 1 to promote cell death” (University of Pittsburgh—of the Commonwealth System of …, priority 2011, dated 2016)

Tests used:
[1] = Solubility of mdivi-1 with carrier compounds; type: physicochemical; details: 1 mM mdivi-1
MDA-MB-231 cells [2] = experiment: Chromosome and mitotic spindle morphology in mitotic cells; type: cell-based, human; details: 7 hours
Protocol: The effect of Drp1 inhibition of chromosome stability was then evaluated. MDA-MB-231 cells that have been engineered to stably express a mitochondrial marker protein pAcGFP-1-mito were treated with mdivi-1 for 7 hours. Mitotic cells were selected for examining the morphology of their chromosomes and mitotic spindles. Chromosomes were visualized by DAPI, and mitotic spindles were visualized by staining cells with Alex-Fluor 555-conjugated anti-β tubulin antibody. The results are shown in FIG. 11; two representative mitotic figures are shown.

[3] = molecular target: T1, Dnm1, the yeast ortholog of Drp1 (Saccharomyces cerevisiae, UniProt P54861); details: US2005/0038051 and US2008/0287473; cited from earlier work
T1 sequence (P54861 1-757): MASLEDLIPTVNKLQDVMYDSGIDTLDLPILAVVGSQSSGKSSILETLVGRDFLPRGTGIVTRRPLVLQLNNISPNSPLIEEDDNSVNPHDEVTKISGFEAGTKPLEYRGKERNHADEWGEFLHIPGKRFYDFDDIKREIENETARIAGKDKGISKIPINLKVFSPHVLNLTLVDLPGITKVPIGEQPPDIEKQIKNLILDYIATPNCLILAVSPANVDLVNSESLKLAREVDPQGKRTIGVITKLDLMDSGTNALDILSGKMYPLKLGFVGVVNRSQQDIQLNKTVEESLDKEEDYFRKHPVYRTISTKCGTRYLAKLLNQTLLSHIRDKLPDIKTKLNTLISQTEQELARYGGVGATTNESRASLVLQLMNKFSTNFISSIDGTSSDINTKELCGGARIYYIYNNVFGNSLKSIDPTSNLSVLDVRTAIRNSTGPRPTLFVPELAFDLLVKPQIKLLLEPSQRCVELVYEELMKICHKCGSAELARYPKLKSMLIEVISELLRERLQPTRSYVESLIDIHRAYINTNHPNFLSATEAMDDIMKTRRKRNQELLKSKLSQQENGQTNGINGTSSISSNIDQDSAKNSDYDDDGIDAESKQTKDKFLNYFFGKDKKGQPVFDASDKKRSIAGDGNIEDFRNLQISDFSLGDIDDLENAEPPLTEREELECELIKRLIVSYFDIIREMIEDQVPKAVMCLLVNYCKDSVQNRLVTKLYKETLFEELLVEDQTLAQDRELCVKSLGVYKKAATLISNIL

MDA-MB-231 cells [4] = experiment: MTS colorimetric survival assay; type: cell-based, human; details: agent alone, 72 h, read-out: IC50, inhibition of growth / survival
Protocol: FIG. 19A-E. Combination of cisplatin and mdivi-1 produces synergistic pro-apoptotic effect in multidrug resistant tumor cells. (A) MDA-MB-231 cells were treated with increasing doses of mdivi-1 for 72 h. The survival was assessed by MTS assay. […] (B) MDA-MB-231 cells were treated with increasing doses of cisplatin alone or the combination with 20 μM or 50 μM of mdivi-1 for 72 h. The survival was assessed by MTS assay. (C) MDA-MB-231 cells were exposed to cisplatin and mdivi-1 alone or combination at their IC50 or 0.5 fold of their IC50. The combination index (CI) and the normalized isobologram were generated using CompuSyn. […] The compounds were then washed out and the cell number was determined every 24 h by CyQuant assay. […] The number of apoptotic cells was determined with antibody recognizing cleaved caspase-3 followed by flow cytometry.
Cell proliferation was determined using a CyQUANT Direct Cell Proliferation Assay kit (Invitrogen), the activity of caspase-3/7 was measured using a Caspase-Glo 3/7 Assay Systems (Promega, Madison, Wis.), and the MTS colorimetric survival assay was performed using the CellTiter 96 AQueous One Solution Cell Proliferation Assay kit (Promega, Madison, Wis.), according to the manufacturer's instructions. The survival fractions were calculated after setting untreated control cells at 100%. […]

MDA-MB-231 cells [5] = experiment: CyQUANT growth assay, continuous exposure; type: cell-based, human; details: various concentrations
Protocol: To test the effect of Drp1 inhibition on tumor cells, MDA-MB-231 cells were plated in black 96-well plates and treated with various concentrations of mdivi-1. Cell numbers were measured by CyQUANT assay every day.

SMILES: COc1cc(-n2c(=S)[nH]c3ccccc3c2=O)c(Cl)cc1Cl [mdivi-1]
- solubility of mdivi-1 ([1]; 40% 2-Hydroxypropyl-β-cyclodextrin/PBS): improve the solubility
- solubility of mdivi-1 ([1]; human serum albumin as vehicle, 15% HSA in 0.85% sodium chloride): improve the solubility
- chromosome stability during mitosis (MDA-MB-231 cells [2]): chromosomal instability
- inhibition of Dnm1 [3]: selective inhibitor
- IC50 (MDA-MB-231 cells [4]): 55.9 ± 1.92 µM
- growth of cells (MDA-MB-231 cells [5]): inhibited the growth of MDA-MB-231 breast cancer cells in a dose-dependent manner
